Assay results from patent US7863478B2, “UV filters” (Merck Patent GmbH, priority 2004, dated 2011).

What was measured:
[1] = UV absorption (UV-VIS spectra in 2-propanol, 1 mg/100 ml); assay type: physicochemical; parameters: UV absorbance at λmax (1 mg/100 ml): unit not given here; conditions: for UV-VIS λmax / UV absorbance at λmax (1 mg/100 ml): 1 mg/100 ml; for UV absorbance at λmax (1 mg/100 ml): value in brackets after λmax in the synthesis example; for UVB (280-320 nm) max. abs / UVB max. at λ [nm] / UVA (400-320 nm) max. abs / UVA max. at λ [nm]: solvent 2-Propanol, c 1 mg/100 ml
Protocol: FIG. 1: UV absorption spectra of 1-hydroxy-3-[(E)-3-(4-methoxyphenyl)-2-propenoyloxy]-2-oxopropane (Example 1a) and 1-hydroxy-3-(2-cyano-3,3-diphenylacryloyloxy)-2-oxopropane (Example 1b) (in each case measured in 2-propanol at a concentration of 1 mg/100 ml)
FIG. 2: UV absorption spectra of 3-[4-(3-hydroxy-2-oxopropoxymethyl)benzylidene]-4,7,7-trimethylbicyclo[2.2.1]heptan-2-one (Example 9), N-(2,3-dihydroxypropyl)-(E)-3-(4-methoxyphenyl)acrylamide (Example 10a) and N-(2,3-dihydroxypropyl)-N-methyl-(E)-3-(4-methoxyphenyl)acrylamide (Example 10b) (in each case measured in 2-propanol at a concentration of 1 mg/100 ml).

Structure (SMILES) | UV-VIS λmax [1] [nm] | UV absorbance at λmax (1 mg/100 ml) [1] | UVB (280-320 nm) max. abs [1] | UVB max. at λ [nm] [1] [nm] | other results
CN(C)c1ccc(C(=O)NCC(=O)CO[Si](C)(C)C(C)(C)C)cc1 [Example 19, N-[3-(tert-butyldimethylsilyloxy)-2-oxopropyl]-4-dimethylaminobenzamide] | 312.0 | 0.713 | – | – | –
CC12CCC(C(=O)/C1=C\c1ccc(CNCC(O)CO)cc1)C2(C)C (stereo not drawn) | – | – | 0.692 | 298.0 | –
CCCCC(CC)COc1ccc(/C=C/C(=O)NCC(O)CO)cc1 (stereo not drawn) [Example 10c, N-(2,3-dihydroxypropyl)-(E)-[4-(2-ethylhexyloxyphenyl)]acrylamide] | 307.0 | 0.688 | – | – | –
N#CC(C(=O)OCC(=O)COC(=O)C(C#N)=C(c1ccccc1)c1ccccc1)=C(c1ccccc1)c1ccccc1 [drawing 78, 1,3-Bis-(2-cyano-3,3-diphenylacryloyloxy)-2-oxopropane] | – | – | 0.031 | 304.0 | –
CC12CCC(C(=O)/C1=C\c1ccc(COCC(=O)CO)cc1)C2(C)C (stereo not drawn) [3-[4-(3-hydroxy-2-oxopropoxymethyl)benzylidene]-4,7,7-trimethylbicyclo[2.2.1]heptan-2-one] | – | – | 0.874 | 296 | –
CCCCC(CC)COc1ccc(/C=C/C(=O)NCC(=O)CO)cc1 (stereo not drawn) [Example 21, N-(3-hydroxy-2-oxopropyl)-(E)-3-[4-(2-ethylhexyloxyphenyl)]acrylamide] | 307.5 | 0.706 | – | – | melting point: 155 to 157 °C
CC1(C)OCC(COc2ccc(C(=O)c3ccccc3)c(O)c2)O1 (stereo not drawn) | – | – | 0.473 | 286.1 | UVA (400-320 nm) max. abs [1]: 0.312; UVA max. at λ [nm] [1]: 328.3 nm
CN(C)c1ccc(C(=O)OCC(=O)CO[Si](C)(C)C(C)(C)C)cc1 [Example 2] | 299.0 | 0.67 | – | – | melting point: 91 to 92 °C
O=C(c1ccccc1)c1ccc(OCC(O)CO)cc1O (stereo not drawn) | – | – | 0.537 | 287.9 | UVA (400-320 nm) max. abs [1]: 0.363; UVA max. at λ [nm] [1]: 327.5 nm
CN(Cc1ccc(/C=C2\C(=O)C3CCC2(C)C3(C)C)cc1)CC(O)CO[Si](C)(C)C(C)(C)C (stereo not drawn) [3-[4-({[3-(tert-butyldimethylsilyloxy)-2-hydroxypropyl]-methylamino}methyl)benzylidene]-4,7,7-trimethylbicyclo[2.2.1]heptan-2-one] | – | – | 0.545 | 297 | –
CN(Cc1ccc(/C=C2\C(=O)C3CCC2(C)C3(C)C)cc1)CC(O)CO (stereo not drawn) [3-(4-{[(2,3-Dihydroxypropyl)methylamino]methyl}benzylidene)-4,7,7-trimethylbicyclo[2.2.1]heptan-2-one] | – | – | 0.711 | 296 | –
COc1ccc(/C=C/C(=O)NCC(O)CO[Si](C)(C)C(C)(C)C)cc1 (stereo not drawn) [drawing 93] | – | – | 0.694 | 289 | –
CN(C)c1ccc(C(=O)NCC(O)CO[Si](C)(C)C(C)(C)C)cc1 (stereo not drawn) [Example 15, N-[3-(tert-butyldimethylsilyloxy)-2-hydroxypropyl]-4-dimethylaminobenzamide] | 301.0 | 0.64 | – | – | melting point: 127 to 128 °C
COc1ccc(/C=C/C(=O)OCC(=O)CO)cc1 [drawing 74] | – | – | 0.893 | 311.33 | –
COc1ccc(/C=C/C(=O)NCC(O)CO[Si](C)(C)C(C)(C)C)cc1 (stereo not drawn) [Example 12, N-[3-(tert-butyldimethylsilyloxy)-2-hydroxypropyl]-(E)-3-(4-methoxyphenyl)acrylamide] | 291.0 | 0.481 | – | – | melting point: 107 to 109 °C
CN(C)c1ccc(C(=O)OCC2COC(C)(C)O2)cc1 (stereo not drawn) [Example 4, 4-(4-Dimethylaminophenylcarbonyloxymethyl)-2,2-dimethyl-1,3-dioxolane] | 310.0 | 0.86 | – | – | –
CN(C)c1ccc(C(=O)OCC(=O)CO)cc1 [Example 3, 3-Hydroxy-2-oxopropyl 4-dimethylaminobenzoate] | 311.0 | 1.213 | – | – | melting point: 129 to 131 °C
COc1ccc(/C=C/C(=O)NCC(O)CO)cc1 (stereo not drawn) [drawing 94] | – | – | 0.914 | 289 | –
COc1ccc(/C=C/C(=O)NCC(O)CO)cc1 (stereo not drawn) [Example 10a, N-(2,3-dihydroxypropyl)-(E)-3-(4-methoxyphenyl)acrylamide] | 298.0 | 0.940 | – | – | melting point: 104 to 106 °C

Structure (SMILES) | UV-VIS λmax [1] [nm] | UV absorbance at λmax (1 mg/100 ml) [1] | UVB (280-320 nm) max. abs [1] | UVB max. at λ [nm] [1] [nm] | other results
COc1ccc(/C=C/C(=O)OCC(=O)COC(=O)/C=C/c2ccc(OC)cc2)cc1 [drawing 73] | – | – | 0.107 | 300.67 | –
COc1ccc(/C=C/C(=O)NCC(=O)CO)cc1 [drawing 81, N-(3-hydroxy-2-oxopropyl)-(E)-3-(4-methoxyphenyl)acrylamide] | – | – | 0.941 | 294.0 | –
CN(C)c1ccc(C(=O)NCC(=O)CO[Si](C)(C)C(C)(C)C)cc1 [drawing 86, N-[3-(tert-butyldimethylsilyloxy)-2-oxopropyl]-4-dimethylaminobenzamide] | – | – | 0.713 | 312.0 | –
CN(C)c1ccc(C(=O)OCC(O)CO)cc1 (stereo not drawn) [Example 5, 2,3-Dihydroxypropyl 4-dimethylaminobenzoate] | 310.0 | 1.01 | – | – | –
CN(C)c1ccc(C(=O)OCC(O)CO[Si](C)(C)C(C)(C)C)cc1 (stereo not drawn) [Example 6, 3-(tert-Butyldimethylsilyloxy)-2-hydroxypropyl 4-dimethylaminobenzoate] | 310.0 | 1.01 | – | – | –
COc1ccc(/C=C/C(=O)NCC(O)CO)cc1 (stereo not drawn) [drawing 75] | – | – | 0.936 | 292.00 | –
CN(C)c1ccc(C(=O)NCC(=O)CO)cc1 [drawing 85, N-(3-hydroxy-2-oxopropyl)-4-dimethylaminobenzamide] | – | – | 0.575 | 298.0 | –
CN(C)c1ccc(C(=O)NCC(O)CO[Si](C)(C)C(C)(C)C)cc1 (stereo not drawn) [drawing 84, N-[3-(tert-butyldimethylsilyloxy)-2-hydroxypropyl]-4-dimethylaminobenzamide] | – | – | 0.64 | 301.0 | –
CN(C)c1ccc(C(=O)OCC(=O)CO)cc1 [drawing 83, 3-Hydroxy-2-oxopropyl 4-dimethylaminobenzoate] | – | – | 1.213 | 311.0 | –
CCCCC(CC)COc1ccc(/C=C/C(=O)NCC(O)CO)cc1 (stereo not drawn) [drawing 89, N-(2,3-dihydroxypropyl)-(E)-[4-(2-ethylhexyloxyphenyl)]acrylamide] | – | – | 0.688 | 307.0 | –
CN(C)c1ccc(C(=O)NCC(O)CO)cc1 (stereo not drawn) [drawing 82] | – | – | 0.947 | 301.0 | –
CN(C)c1ccc(C(=O)NCC(=O)CO)cc1 [Example 22, N-(3-hydroxy-2-oxopropyl)-4-dimethylaminobenzamide] | 298.0 | 0.575 | – | – | –
N#CC(C(=O)OCC(=O)CO)=C(c1ccccc1)c1ccccc1 [drawing 77, 1-Hydroxy-3-(2-cyano-3,3-diphenylacryloyloxy)-2-oxopropane] | – | – | 0.375 | 303.0 | –
CCCCC(CC)COc1ccc(/C=C/C(=O)NCC(=O)CO)cc1 (stereo not drawn) [drawing 90, N-(3-hydroxy-2-oxopropyl)-(E)-3-[4-(2-ethylhexyloxyphenyl)]acrylamide] | – | – | 0.706 | 307.5 | –
COc1ccc(/C=C/C(=O)N(C)CC(O)CO)cc1 (stereo not drawn) [drawing 96] | – | – | 0.715 | 292 | –
COC(CO)(COCc1ccc(/C=C2\C(=O)C3CCC2(C)C3(C)C)cc1)OC (stereo not drawn) [3-[4-(3-hydroxy-2,2-dimethoxypropoxymethyl)benzylidene]-4,7,7-trimethylbicyclo[2.2.1]heptan-2-one] | – | – | 0.615 | 298.0 | –
COc1ccc(/C=C/C(=O)OCC2COC(C)(C)O2)cc1 (stereo not drawn) | – | – | 0.796 | 306.0 | –
COc1ccc(/C=C/C(=O)OCC(O)CO)cc1 (stereo not drawn) | – | – | 0.881 | 302.0 | –
